Earlier results on six molecules are cited in patent US7858602B2, “Therapeutic and prophylactic uses of cell specific carbonic anhydrase enzymes in treating aging disorders due to oxidative stress and as growth factors of stem cells” (priority 2000, dated 2010).

The subject of series [1] is human synovial cells and synovial tissue cultures.
Series [2] relates to carbonic anhydrase VI (CA-VI). Conditions: orally administered, patients with CA-VI deficiency.
Another series has as its system CA. Conditions: in vitro and in vivo.
Series [3] relates to sympathetic nerve terminals.
Series [4] concerns synovial connective tissue fibroblast.
Another series concerns muscle fibroblast. Conditions: exposure to CA III.

As for `CNCCC(Oc1ccc(C(F)(F)F)cc1)c1ccccc1` (stereo not drawn) [Fluoxetine], in series [1], the “Prostaglandin PGE2 production” value is given as “inhibit”, the hyaluronic acid production result is recorded as “inhibit” and the nitric oxide production entry is reported as “inhibit”.
As to `[Zn]` [Zinc], the “stimulation of synthesis/secretion of CA-VI, treatment result” value in series [2] is listed as “successful”.
`CN(C)CCC=C1c2ccccc2CCc2ccccc21` [aminitriptylline]: in series [1], the “Prostaglandin PGE2 production” value is listed as “inhibit”, the hyaluronic acid production entry is “inhibit” and the nitric oxide production result is given as “inhibit”.
Regarding `CCCCC[C@H](O)/C=C/[C@H]1[C@H](O)CC(=O)[C@@H]1CCCCCCC(=O)O` [prostaglandin E1], in the series with CA, the “effect on CA” value was “inhibit”.
For `CCCCC[C@H](O)/C=C/[C@H]1[C@H](O)CC(=O)[C@@H]1C/C=C\CCCC(=O)O` [prostaglandin E2, Prostaglandin E2], the “effect on CA” value in the series on CA is listed as “inhibit”. In addition, the gastric acid output result with gastric acid output is “inhibit”. The “egress of norepinephrine from sympathetic nerve terminals” value in series [3] is given as “inhibits”.

B1: CA III: Carbonic anhydrase III isolated from adult human skeletal muscle (protein, UniProt P07451 2-260, looked up)
Carbonic anhydrase 3: AKEWGYASHNGPDHWHELFPNAKGENQSPVELHTKDIRHDPSLQPWSVSYDGGSAKTILNNGKTCRVVFDDTYDRSMLRGGPLPGPYRLRQFHLHWGSSDDHGSEHTVDGVKYAAELHLVHWNPKYNTFKEALKQRDGIAVIGIFLKIGHENGEFQIFLDALDKIKTKGKEAPFTKFDPSCLFPACRDYWTYQGSFTTPPCEECIVWLLLKEPMTVSSDQMAKLRSLLSSAENEPPVPLVSNWRPPQPINNRVVRASFK
For the molecule B1, the “increase of synovial connective tissue fibroblast on exposure to CA III” value in series [4] (cell culture) is 2 to 12 fold. The hyaluronic acid synthesis result in series [4] (cell culture, exposure to CA III) is listed as “increased”. In addition, in series [4] (exposure to CA III), the “increase in synovial fibroblasts” value is reported as 16-70%. Also, in the series on muscle fibroblast, the “increase in muscle fibroblast” value is recorded as 20-45%.
